Measured values reported in patent EP2649091B1, “IMMUNE RESTRICTED PEPTIDES WITH INCREASED EFFICACY” (Stichting Het Nederlands Kanker Instituut, priority 2010, dated 2012).
“And” between values parts separate entries of the source, which are not always exact repeats. Equal values may be shown once. Where no end group is shown, it is not given here. BUTALA = not defined here; PHG = not defined here

Tests used:
[1] = target: HLA-A0201 (Homo sapiens, UniProt P04439, D140Y/D185E/D98H/E176V/E277Q/G131W/G231S/I119V/I121R/I166T/I218V/L300P/L318F/N151K/N90K/P208A/P217A/Q86G/Q94H/R138H/R169H/T345S); type: binding
[2] = system: CD8+ T cells from Influenza A positive donors sorted using tetramers containing HLA A2.1::[…]; type: cell-based
[3] = system: CD8+ T cells from Influenza A positive donors sorted using tetramers containing HLA A2.1::[…]; type: cell-based; remark: listed apart in the source
[4] = system: HLA-A2::Mart-1(26-35) reactive T cells stimulated by T2 cells; experiment: T cell activation time course assay, IFNγ production (FACS), Mart-1 epitope; type: cell-based; conditions: for % CD8+ T cells producing IFN-γ 0H / Geometric mean IFN-γ in arbitrary fluorescence units 0H: time point 0H (basal); for % CD8+ T cells producing IFN-γ 2H / Geometric mean IFN-γ in arbitrary fluorescence units 2H: time point 2H; for % CD8+ T cells producing IFN-γ 4H / Geometric mean IFN-γ in arbitrary fluorescence units 4H: time point 4H; for % CD8+ T cells producing IFN-γ 24H / Geometric mean IFN-γ in arbitrary fluorescence units 24H: time point 24H; for % CD8+ T cells producing IFN-γ 24H / Geometric mean IFN-γ in arbitrary fluorescence units 24H / % CD8+ T cells producing IFN-γ 48H / Geometric mean IFN-γ in arbitrary fluorescence units 48H: free peptide washed away; for % CD8+ T cells producing IFN-γ 48H / Geometric mean IFN-γ in arbitrary fluorescence units 48H: time point 48H
[5] = system: SVYDFFVWL (TRP-2 180-188) reactive T cells; experiment: T cell activation time course assay, IFNγ production (FACS), TRP-2 epitope; conditions: for % CD8+ T cells producing IFN-γ peptide concentrations in picomolar 24H 0.5 / Geometric mean IFN-γ in arbitrary fluorescence units peptide concentrations in picomolar 24H 0.5 / % CD8+ T cells producing IFN-γ peptide concentrations in picomolar 48H 0.5 / Geometric mean IFN-γ in arbitrary fluorescence units peptide concentrations in picomolar 48H 0.5: peptide 0.5 pM; for % CD8+ T cells producing IFN-γ peptide concentrations in picomolar 24H 50 / Geometric mean IFN-γ in arbitrary fluorescence units peptide concentrations in picomolar 24H 50 / % CD8+ T cells producing IFN-γ peptide concentrations in picomolar 48H 50 / Geometric mean IFN-γ in arbitrary fluorescence units peptide concentrations in picomolar 48H 50: peptide 50 pM; for % CD8+ T cells producing IFN-γ peptide concentrations in picomolar 24H 5·10^3 / Geometric mean IFN-γ in arbitrary fluorescence units peptide concentrations in picomolar 24H 5·10^3 / % CD8+ T cells producing IFN-γ peptide concentrations in picomolar 48H 5·10^3 / Geometric mean IFN-γ in arbitrary fluorescence units peptide concentrations in picomolar 48H 5·10^3: peptide 5·10^3 pM

[PHG]I[NLE]GFVFTL
% inhibition at T=4H and T=24H FP 4h [1]: 86%
% inhibition at T=4H and T=24H FP 24h [1]: 84%
IC50 Ratio [1]: 3
% CD8+ T cells producing IFN-γ % IFN [2]: 2.9%
Geometric mean IFN-γ in arbitrary fluorescence units Geo IFN [2]: 270 arbitrary fluorescence units
% Positive TCR recognition % TCR [3]: 3.26%
Geometric mean IFN in arbitrary fluorescence units Geo TCR [3]: 235 arbitrary fluorescence units

[PHG][BUTALA]LGFVFTL ({PHG-BUTALA}-LGFVFTL; reading uncertain)
% inhibition at T=4H and T=24H FP 24h [1]: 75%
% CD8+ T cells producing IFN-γ % IFN [2]: 2.5%
Geometric mean IFN-γ in arbitrary fluorescence units Geo IFN [2]: 249 arbitrary fluorescence units
% Positive TCR recognition % TCR [3]: 3.16%
Geometric mean IFN in arbitrary fluorescence units Geo TCR [3]: 464 arbitrary fluorescence units

[PHG][NLE]LGFVFTL
% inhibition at T=4H and T=24H FP 4h [1]: 77%
% inhibition at T=4H and T=24H FP 24h [1]: 77%
IC50 Ratio [1]: 4
% CD8+ T cells producing IFN-γ % IFN [2]: 2.7%
Geometric mean IFN-γ in arbitrary fluorescence units Geo IFN [2]: 238 arbitrary fluorescence units
% Positive TCR recognition % TCR [3]: 3.58%
Geometric mean IFN in arbitrary fluorescence units Geo TCR [3]: 328 arbitrary fluorescence units

[am-phg]ILGFV[4-FPHE]TL
% inhibition at T=4H and T=24H FP 4h [1]: 92%
% inhibition at T=4H and T=24H FP 24h [1]: 93%
IC50 Ratio [1]: 6
% CD8+ T cells producing IFN-γ % IFN [2]: 2.2%
Geometric mean IFN-γ in arbitrary fluorescence units Geo IFN [2]: 208 arbitrary fluorescence units
% Positive TCR recognition % TCR [3]: 3.27%
Geometric mean IFN in arbitrary fluorescence units Geo TCR [3]: 197 arbitrary fluorescence units

[am-phg][2-AOC]AGIGILT[PRG]
% CD8+ T cells producing IFN-γ 0H ([4]; peptide 0.5 pM): 0%
Geometric mean IFN-γ in arbitrary fluorescence units 0H ([4]; peptide 0.5 pM): 104 arbitrary fluorescence units
% CD8+ T cells producing IFN-γ 2H ([4]; peptide 0.5 pM): 26%
Geometric mean IFN-γ in arbitrary fluorescence units 2H ([4]; peptide 0.5 pM): 207 arbitrary fluorescence units
% CD8+ T cells producing IFN-γ 4H ([4]; peptide 0.5 pM): 30%
Geometric mean IFN-γ in arbitrary fluorescence units 4H ([4]; peptide 0.5 pM): 378 arbitrary fluorescence units
% CD8+ T cells producing IFN-γ 24H ([4]; peptide 0.5 pM): 1%
Geometric mean IFN-γ in arbitrary fluorescence units 24H ([4]; peptide 0.5 pM): 116 arbitrary fluorescence units
% CD8+ T cells producing IFN-γ 48H ([4]; peptide 0.5 pM): 0%
Geometric mean IFN-γ in arbitrary fluorescence units 48H ([4]; peptide 0.5 pM): 88 arbitrary fluorescence units
% CD8+ T cells producing IFN-γ 0H ([4]; peptide 50 pM): 0%
Geometric mean IFN-γ in arbitrary fluorescence units 0H ([4]; peptide 50 pM): 109 arbitrary fluorescence units
% CD8+ T cells producing IFN-γ 2H ([4]; peptide 50 pM): 27%
Geometric mean IFN-γ in arbitrary fluorescence units 2H ([4]; peptide 50 pM): 258 arbitrary fluorescence units
% CD8+ T cells producing IFN-γ 4H ([4]; peptide 50 pM): 30%
Geometric mean IFN-γ in arbitrary fluorescence units 4H ([4]; peptide 50 pM): 592 arbitrary fluorescence units
% CD8+ T cells producing IFN-γ 24H ([4]; peptide 50 pM): 16%
Geometric mean IFN-γ in arbitrary fluorescence units 24H ([4]; peptide 50 pM): 187 arbitrary fluorescence units
% CD8+ T cells producing IFN-γ 48H ([4]; peptide 50 pM): 1%
Geometric mean IFN-γ in arbitrary fluorescence units 48H ([4]; peptide 50 pM): 86 arbitrary fluorescence units
% inhibition at T=4H and T=24H FP 4h [1]: 80%
% inhibition at T=4H and T=24H FP 24h [1]: 77%
IC50 Ratio [1]: 24.3 and 24

[am-phg][BUTALA]LGFVFTL
% inhibition at T=4H and T=24H FP 24h [1]: 96%
IC50 Ratio [1]: 3
% CD8+ T cells producing IFN-γ % IFN [2]: 2.8%
Geometric mean IFN-γ in arbitrary fluorescence units Geo IFN [2]: 205 arbitrary fluorescence units
% Positive TCR recognition % TCR [3]: 3.32%
Geometric mean IFN in arbitrary fluorescence units Geo TCR [3]: 155 arbitrary fluorescence units

[am-phg][BUTALA]LGFV[4-FPHE]TL
% inhibition at T=4H and T=24H FP 4h [1]: 83%
% inhibition at T=4H and T=24H FP 24h [1]: 84%
IC50 Ratio [1]: 3
% CD8+ T cells producing IFN-γ % IFN [2]: 2.6%
Geometric mean IFN-γ in arbitrary fluorescence units Geo IFN [2]: 266 arbitrary fluorescence units
% Positive TCR recognition % TCR [3]: 3.20%
Geometric mean IFN in arbitrary fluorescence units Geo TCR [3]: 217 arbitrary fluorescence units

[am-phg][CpALA]YDFFVW[PRG]
% CD8+ T cells producing IFN-γ peptide concentrations in picomolar 24H 0.5 [5]: 1%
Geometric mean IFN-γ in arbitrary fluorescence units peptide concentrations in picomolar 24H 0.5 [5]: 94 arbitrary fluorescence units
% CD8+ T cells producing IFN-γ peptide concentrations in picomolar 24H 50 [5]: 1%
Geometric mean IFN-γ in arbitrary fluorescence units peptide concentrations in picomolar 24H 50 [5]: 69 arbitrary fluorescence units
% CD8+ T cells producing IFN-γ peptide concentrations in picomolar 24H 5·10^3 [5]: 14%
Geometric mean IFN-γ in arbitrary fluorescence units peptide concentrations in picomolar 24H 5·10^3 [5]: 95 arbitrary fluorescence units
% CD8+ T cells producing IFN-γ peptide concentrations in picomolar 48H 0.5 [5]: 0%
Geometric mean IFN-γ in arbitrary fluorescence units peptide concentrations in picomolar 48H 0.5 [5]: 76 arbitrary fluorescence units
% CD8+ T cells producing IFN-γ peptide concentrations in picomolar 48H 50 [5]: 0%
Geometric mean IFN-γ in arbitrary fluorescence units peptide concentrations in picomolar 48H 50 [5]: 66 arbitrary fluorescence units
% CD8+ T cells producing IFN-γ peptide concentrations in picomolar 48H 5·10^3 [5]: 4%
Geometric mean IFN-γ in arbitrary fluorescence units peptide concentrations in picomolar 48H 5·10^3 [5]: 76 arbitrary fluorescence units
% inhibition at T=4H and T=24H FP 4h [1]: 80%
% inhibition at T=4H and T=24H FP 24h [1]: 80%

[am-phg][NVA]AGIGILT[ALG]
% CD8+ T cells producing IFN-γ 0H ([4]; peptide 0.5 pM): 0%
Geometric mean IFN-γ in arbitrary fluorescence units 0H ([4]; peptide 0.5 pM): 112 arbitrary fluorescence units
% CD8+ T cells producing IFN-γ 2H ([4]; peptide 0.5 pM): 26%
Geometric mean IFN-γ in arbitrary fluorescence units 2H ([4]; peptide 0.5 pM): 221 arbitrary fluorescence units
% CD8+ T cells producing IFN-γ 4H ([4]; peptide 0.5 pM): 29%
Geometric mean IFN-γ in arbitrary fluorescence units 4H ([4]; peptide 0.5 pM): 350 arbitrary fluorescence units
% CD8+ T cells producing IFN-γ 24H ([4]; peptide 0.5 pM): 17%
Geometric mean IFN-γ in arbitrary fluorescence units 24H ([4]; peptide 0.5 pM): 163 arbitrary fluorescence units
% CD8+ T cells producing IFN-γ 48H ([4]; peptide 0.5 pM): 5%
Geometric mean IFN-γ in arbitrary fluorescence units 48H ([4]; peptide 0.5 pM): 111 arbitrary fluorescence units
% CD8+ T cells producing IFN-γ 0H ([4]; peptide 50 pM): 0%
Geometric mean IFN-γ in arbitrary fluorescence units 0H ([4]; peptide 50 pM): 109 arbitrary fluorescence units
% CD8+ T cells producing IFN-γ 2H ([4]; peptide 50 pM): 28%
Geometric mean IFN-γ in arbitrary fluorescence units 2H ([4]; peptide 50 pM): 247 arbitrary fluorescence units
% CD8+ T cells producing IFN-γ 4H ([4]; peptide 50 pM): 33%
Geometric mean IFN-γ in arbitrary fluorescence units 4H ([4]; peptide 50 pM): 715 arbitrary fluorescence units
% CD8+ T cells producing IFN-γ 24H ([4]; peptide 50 pM): 29%
Geometric mean IFN-γ in arbitrary fluorescence units 24H ([4]; peptide 50 pM): 400 arbitrary fluorescence units
% CD8+ T cells producing IFN-γ 48H ([4]; peptide 50 pM): 20%
Geometric mean IFN-γ in arbitrary fluorescence units 48H ([4]; peptide 50 pM): 280 arbitrary fluorescence units
% inhibition at T=4H and T=24H FP 4h [1]: 58%
% inhibition at T=4H and T=24H FP 24h [1]: 63%
IC50 Ratio [1]: 2.5 and 2

[am-phg][NVA]YDFFVWL
% CD8+ T cells producing IFN-γ peptide concentrations in picomolar 24H 0.5 [5]: 1%
Geometric mean IFN-γ in arbitrary fluorescence units peptide concentrations in picomolar 24H 0.5 [5]: 59 arbitrary fluorescence units
% CD8+ T cells producing IFN-γ peptide concentrations in picomolar 24H 50 [5]: 26%
% CD8+ T cells producing IFN-γ peptide concentrations in picomolar 24H 5·10^3 [5]: 34%
Geometric mean IFN-γ in arbitrary fluorescence units peptide concentrations in picomolar 24H 5·10^3 [5]: 326 arbitrary fluorescence units
% CD8+ T cells producing IFN-γ peptide concentrations in picomolar 48H 0.5 [5]: 1%
Geometric mean IFN-γ in arbitrary fluorescence units peptide concentrations in picomolar 48H 0.5 [5]: 78 arbitrary fluorescence units
% CD8+ T cells producing IFN-γ peptide concentrations in picomolar 48H 50 [5]: 18%
% CD8+ T cells producing IFN-γ peptide concentrations in picomolar 48H 5·10^3 [5]: 40%
Geometric mean IFN-γ in arbitrary fluorescence units peptide concentrations in picomolar 48H 5·10^3 [5]: 255 arbitrary fluorescence units
% inhibition at T=4H and T=24H FP 4h [1]: 79%
% inhibition at T=4H and T=24H FP 24h [1]: 77%

[am-phg][NVA]YDFFVW[PRG]
% CD8+ T cells producing IFN-γ peptide concentrations in picomolar 24H 0.5 [5]: 0%
Geometric mean IFN-γ in arbitrary fluorescence units peptide concentrations in picomolar 24H 0.5 [5]: 64 arbitrary fluorescence units
% CD8+ T cells producing IFN-γ peptide concentrations in picomolar 24H 50 [5]: 7%
Geometric mean IFN-γ in arbitrary fluorescence units peptide concentrations in picomolar 24H 50 [5]: 77 arbitrary fluorescence units
% CD8+ T cells producing IFN-γ peptide concentrations in picomolar 24H 5·10^3 [5]: 26%
Geometric mean IFN-γ in arbitrary fluorescence units peptide concentrations in picomolar 24H 5·10^3 [5]: 181 arbitrary fluorescence units
% CD8+ T cells producing IFN-γ peptide concentrations in picomolar 48H 0.5 [5]: 0%
Geometric mean IFN-γ in arbitrary fluorescence units peptide concentrations in picomolar 48H 0.5 [5]: 71 arbitrary fluorescence units
% CD8+ T cells producing IFN-γ peptide concentrations in picomolar 48H 50 [5]: 1%
Geometric mean IFN-γ in arbitrary fluorescence units peptide concentrations in picomolar 48H 50 [5]: 57 arbitrary fluorescence units
% CD8+ T cells producing IFN-γ peptide concentrations in picomolar 48H 5·10^3 [5]: 23%
Geometric mean IFN-γ in arbitrary fluorescence units peptide concentrations in picomolar 48H 5·10^3 [5]: 132 arbitrary fluorescence units
% inhibition at T=4H and T=24H FP 4h [1]: 88%
% inhibition at T=4H and T=24H FP 24h [1]: 80%
